The target in test [1] is Glutaminyl-peptide cyclotransferase (Homo sapiens, UniProt Q16769).
Description: Inhibition of recombinant human QC using H-Gln-AMC hydrobromide as fluorogenic substrate incubated for 6 hrs by fluorometric microplate reader analysis
For test [2], the target named is Glutaminyl-peptide cyclotransferase-like protein (Homo sapiens, UniProt Q9NXS2). In words: Inhibition of recombinant human isoQC using H-Gln-AMC hydrobromide as fluorogenic substrate incubated for 6 hrs by fluorometric microplate reader analysis.

Each structure is given as a SMILES string.

The values below come from ChEMBL document CHEMBL5143758, “2-Amino-1,3,4-thiadiazoles as Glutaminyl Cyclases Inhibitors Increase Phagocytosis through Modification of CD47-SIRPα Checkpoint” (ACS Med Chem Lett, 2022).

Sequence of Glutaminyl-peptide cyclotransferase (Q16769 whole entry): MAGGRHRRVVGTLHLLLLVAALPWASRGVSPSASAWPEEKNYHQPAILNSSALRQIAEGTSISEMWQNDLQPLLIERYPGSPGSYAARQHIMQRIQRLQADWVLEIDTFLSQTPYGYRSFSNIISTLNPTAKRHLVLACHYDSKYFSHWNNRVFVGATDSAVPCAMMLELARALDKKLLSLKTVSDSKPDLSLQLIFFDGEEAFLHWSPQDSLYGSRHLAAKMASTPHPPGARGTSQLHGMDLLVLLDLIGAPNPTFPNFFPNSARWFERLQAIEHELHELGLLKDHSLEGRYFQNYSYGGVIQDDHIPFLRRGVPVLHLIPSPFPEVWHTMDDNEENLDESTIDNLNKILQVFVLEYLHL
Sequence of Glutaminyl-peptide cyclotransferase-like protein (Q9NXS2 whole entry): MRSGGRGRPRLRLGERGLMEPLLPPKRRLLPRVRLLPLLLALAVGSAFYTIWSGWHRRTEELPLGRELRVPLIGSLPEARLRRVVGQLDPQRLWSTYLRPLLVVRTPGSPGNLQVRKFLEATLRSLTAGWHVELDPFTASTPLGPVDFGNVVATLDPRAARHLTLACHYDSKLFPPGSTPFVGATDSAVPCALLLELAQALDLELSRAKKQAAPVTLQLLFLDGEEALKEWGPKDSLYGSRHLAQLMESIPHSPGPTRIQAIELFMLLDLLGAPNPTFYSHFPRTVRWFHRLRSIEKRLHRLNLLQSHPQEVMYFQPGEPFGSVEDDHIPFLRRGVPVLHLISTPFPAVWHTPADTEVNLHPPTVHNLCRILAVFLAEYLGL

As to `Cc1c[nH]cn1`, the midpoint of inhibition in test [1], the IC50, lay at 110 µM.

Take `O=C(O)c1ccc2cccc(O)c2n1`: in test [1], the concentration for half-maximal inhibition (IC50) (usually the concentration at which inhibition is half-maximal) came out at 203 µM.

`COc1ccc(NC(=S)NCCCn2ccnc2)cc1OC`: the IC50 in test [2] worked out at 0.351 µM.

In turn, `Cc1cncn1-c1ccccc1` showed an IC50 in test [1] of 144 µM.

In turn, `Cn1cccc(O)c1=O` returned an IC50 in test [1] of 772 µM.

In turn, `O=c1ccocc1O` registered an IC50 in test [1] of 232 µM.

In test [1], `Sc1nc2ccccc2[nH]1` [2-MERCAPTOBENZIMIDAZOLE] registered an IC50 of 551 µM.

`Oc1ccccc1O` [CATECHOL] gave an IC50 in test [1] of 5 µM.

`Oc1cccc2cccnc12` [OXYQUINOLINE] gave an IC50 in test [1] of 208 µM.

In test [1], `O=C1CNC(=S)N1` [THIOHYDANTOIN] returned an IC50 of 390 µM.
